Measured values from patent US9962369B2, “Methods and compositions for transdermal delivery” (SPRAYABLE HOLDINGS, INC., priority 2014, dated 2018).

Tests used:
human skin tissue = assay: Penetration rate of AI compound in AI-helper composition through human skin in vitro, modified Franz cells; type: in vitro ADME
Protocol: Penetration rate of AI compound in the AI-helper composition through human skin were measured in vitro by modified Franz cells. A Franz cell had two chambers: the top sample chamber and the bottom receiving chamber. The human skin tissue (450-500 μm thick) that separated the top and the receiving chambers was isolated from the anterior or posterior thigh areas.

[1] = Solubility of AI compound in AI-helper composition (AI compound added until saturated); type: physicochemical; details: water
Protocol: Solubility was tested by adding small amounts of AI compound to a set volume of an AI-helper composition at a certain temperature until the AI-helper composition was saturated with the AI compound, and measuring the amount of the AI compound added to calculate the solubility of the AI compound in the AI-helper composition at the temperature.

clinical = details: human, plasma, topical, 3 mg

- Skin penetration rate of melatonin (human skin tissue; 1% melatonin (a suspension) without helper esters, 20° C.): 1.153 ± 0.111 μg/cm^2/h
- Skin penetration rate of melatonin (human skin tissue; melatonin 1% w/v, Tryptophan isopropyl ester•HA 6% w/v, HA = 1/2H2SO4, water, 20° C.): 15.928 ± 1.476 μg/cm^2/h
- Skin penetration rate of melatonin (human skin tissue; melatonin 1% w/v, Tryptophan isopropyl ester•HA 6% w/v, HA = 2/3H3PO4, water, 20° C.): 15.691 ± 1.571 μg/cm^2/h
- Skin penetration rate of melatonin (human skin tissue; melatonin 1% w/v, Tryptophan isopropyl ester•HA 6% w/v, HA = Benzoic acid, water, 20° C.): 14.665 ± 1.589 μg/cm^2/h
- Skin penetration rate of melatonin (human skin tissue; melatonin 1% w/v, Tryptophan isopropyl ester•HA 6% w/v, HA = Butyric acid, water, 20° C.): 15.378 ± 1.598 μg/cm^2/h
- Skin penetration rate of melatonin (human skin tissue; melatonin 1% w/v, Tryptophan isopropyl ester•HA 6% w/v, HA = Citric acid, water, 20° C.): 15.371 ± 1.287 μg/cm^2/h
- Skin penetration rate of melatonin (human skin tissue; melatonin 1% w/v, Tryptophan isopropyl ester•HA 6% w/v, HA = H2SO4, water, 20° C.): 16.780 ± 1.891 μg/cm^2/h
- Skin penetration rate of melatonin (human skin tissue; melatonin 1% w/v, Tryptophan isopropyl ester•HA 6% w/v, HA = HBr, water, 20° C.): 15.971 ± 1.785 μg/cm^2/h
- Skin penetration rate of melatonin (human skin tissue; melatonin 1% w/v, Tryptophan isopropyl ester•HA 6% w/v, HA = HCl, water, 20° C.): 16.678 ± 1.567 μg/cm^2/h
- Skin penetration rate of melatonin (human skin tissue; melatonin 1% w/v, Tryptophan isopropyl ester•HA 6% w/v, HA = HF, water, 20° C.): 16.165 ± 1.167 μg/cm^2/h
- Skin penetration rate of melatonin (human skin tissue; melatonin 1% w/v, Tryptophan isopropyl ester•HA 6% w/v, HA = HI, water, 20° C.): 14.467 ± 1.183 μg/cm^2/h
- Skin penetration rate of melatonin (human skin tissue; melatonin 1% w/v, Tryptophan isopropyl ester•HA 6% w/v, HA = Lactic acid, water, 20° C.): 15.897 ± 1.109 μg/cm^2/h
- Skin penetration rate of melatonin (human skin tissue; melatonin 1% w/v, Tyrosine isopropyl ester•HA 6% w/v, HA = 1/2H2SO4, water, 20° C.): 15.978 ± 2.136 μg/cm^2/h
- Skin penetration rate of melatonin (human skin tissue; melatonin 1% w/v, Tyrosine isopropyl ester•HA 6% w/v, HA = 1/3H3PO4, water, 20° C.): 15.848 ± 1.782 μg/cm^2/h
- Skin penetration rate of melatonin (human skin tissue; melatonin 1% w/v, Tyrosine isopropyl ester•HA 6% w/v, HA = 2/3H3PO4, water, 20° C.): 16.156 ± 3.124 μg/cm^2/h
- Skin penetration rate of melatonin (human skin tissue; melatonin 1% w/v, Tyrosine isopropyl ester•HA 6% w/v, HA = Acetic acid, water, 20° C.): 15.983 ± 3.471 μg/cm^2/h
- Skin penetration rate of melatonin (human skin tissue; melatonin 1% w/v, Tyrosine isopropyl ester•HA 6% w/v, HA = Benzoic acid, water, 20° C.): 17.002 ± 3.257 μg/cm^2/h
- Skin penetration rate of melatonin (human skin tissue; melatonin 1% w/v, Tyrosine isopropyl ester•HA 6% w/v, HA = Butyric acid, water, 20° C.): 16.125 ± 1.972 μg/cm^2/h
- Skin penetration rate of melatonin (human skin tissue; melatonin 1% w/v, Tyrosine isopropyl ester•HA 6% w/v, HA = Citric acid, water, 20° C.): 16.246 ± 2.319 μg/cm^2/h
- Skin penetration rate of melatonin (human skin tissue; melatonin 1% w/v, Tyrosine isopropyl ester•HA 6% w/v, HA = H2SO4, water, 20° C.): 16.632 ± 1.357 μg/cm^2/h
- Skin penetration rate of melatonin (human skin tissue; melatonin 1% w/v, Tyrosine isopropyl ester•HA 6% w/v, HA = HBr, water, 20° C.): 16.578 ± 2.117 μg/cm^2/h
- Skin penetration rate of melatonin (human skin tissue; melatonin 1% w/v, Tyrosine isopropyl ester•HA 6% w/v, HA = HF, water, 20° C.): 15.765 ± 1.946 μg/cm^2/h
- Skin penetration rate of melatonin (human skin tissue; melatonin 1% w/v, Tyrosine isopropyl ester•HA 6% w/v, HA = HI, water, 20° C.): 15.863 ± 1.970 μg/cm^2/h
- Skin penetration rate of melatonin (human skin tissue; melatonin 1% w/v, Tyrosine isopropyl ester•HA 6% w/v, HA = Lactic acid, water, 20° C.): 16.029 ± 2.467 μg/cm^2/h
- Skin penetration rate of melatonin (human skin tissue; no helper ester (None), melatonin 1 % w/v (suspension) in water, 20 °C): 1.153 ± 0.111 μg/cm^2/h
- Skin penetration rate of AI compound (human skin tissue; no isoleucine ester (None), AI compound 0.5 % w/v (a suspension) in water, 20 °C): 1.147 ± 0.123 μg/cm^2/h
- Skin penetration rate of AI compound (human skin tissue; no leucine ester (None), AI compound 0.5 % w/v (a suspension) in water, 20 °C): 1.147 ± 0.123 μg/cm^2/h
- Skin penetration rate of melatonin (human skin tissue; no proline ester (None), melatonin 0.5 % w/v (suspension) in water, 20 °C): 1.147 ± 0.123 μg/cm^2/h
- Skin penetration rate of AI compound (human skin tissue; no tryptophan ester (None), AI compound 1 % w/v (suspension) in water, 20 °C): 1.153 ± 0.111 μg/cm^2/h
- Skin penetration rate of melatonin (human skin tissue; no tyrosine ester (None), melatonin 1 % w/v (suspension) in water, 20 °C): 1.153 ± 0.111 μg/cm^2/h
- Skin penetration rate of AI compound (human skin tissue; with D-tryptophan ethyl ester hydrochloride 6 % w/v in water, AI compound 1 % w/v, 20 °C): 16.011 ± 1.511 μg/cm^2/h
- Skin penetration rate of AI compound (human skin tissue; with D-tryptophan isopropyl ester hydrochloride 6 % w/v in water, AI compound 1 % w/v, 20 °C): 16.451 ± 1.473 μg/cm^2/h
- Skin penetration rate of AI compound (human skin tissue; with D-tryptophan pentyl ester hydrochloride 6 % w/v in water, AI compound 1 % w/v, 20 °C): 15.003 ± 1.513 μg/cm^2/h
- Skin penetration rate of AI compound (human skin tissue; with L-isoleucine ethyl ester hydrochloride 6 % w/v in water, AI compound 0.5 % w/v, 20 °C): 9.012 ± 0.148 μg/cm^2/h
- Skin penetration rate of AI compound (human skin tissue; with L-isoleucine isopropyl ester hydrochloride 6 % w/v in water, AI compound 0.5 % w/v, 20 °C): 9.015 ± 0.161 μg/cm^2/h
- Skin penetration rate of AI compound (human skin tissue; with L-isoleucine methyl ester hydrochloride 6 % w/v in water, AI compound 0.5 % w/v, 20 °C): 8.712 ± 0.168 μg/cm^2/h
- Skin penetration rate of AI compound (human skin tissue; with L-isoleucine pentyl ester hydrochloride 6 % w/v in water, AI compound 0.5 % w/v, 20 °C): 8.219 ± 0.201 μg/cm^2/h
- Skin penetration rate of AI compound (human skin tissue; with L-leucine ethyl ester hydrochloride 6 % w/v in water, AI compound 0.5 % w/v, 20 °C): 9.101 ± 0.153 μg/cm^2/h
- Skin penetration rate of AI compound (human skin tissue; with L-leucine hexyl ester hydrochloride 6 % w/v in water, AI compound 0.5 % w/v, 20 °C): 8.019 ± 0.181 μg/cm^2/h
- Skin penetration rate of AI compound (human skin tissue; with L-leucine isopropyl ester hydrochloride 6 % w/v in water, AI compound 0.5 % w/v, 20 °C): 9.371 ± 0.137 μg/cm^2/h
- Skin penetration rate of AI compound (human skin tissue; with L-leucine methyl ester hydrochloride 6 % w/v in water, AI compound 0.5 % w/v, 20 °C): 9.058 ± 0.131 μg/cm^2/h
- Skin penetration rate of AI compound (human skin tissue; with L-tryptophan butyl ester hydrochloride 6 % w/v in water, AI compound 1 % w/v, 20 °C): 15.676 ± 1.574 μg/cm^2/h
- Skin penetration rate of AI compound (human skin tissue; with L-tryptophan isopropyl ester hydrochloride 6 % w/v in water, AI compound 1 % w/v, 20 °C): 16.678 ± 1.567 μg/cm^2/h
- Skin penetration rate of AI compound (human skin tissue; with L-tryptophan pentyl ester hydrochloride 6 % w/v in water, AI compound 1 % w/v, 20 °C): 15.012 ± 1.315 μg/cm^2/h
- Solubility of melatonin ([1]; tryptophan isopropyl ester•HA 10% w/v, HA = 1/2H2SO4, 20° C.): >1.4% (w/v)
- Solubility of melatonin ([1]; tryptophan isopropyl ester•HA 10% w/v, HA = 1/3H3PO4, 20° C.): >1.2% (w/v)
- Solubility of melatonin ([1]; tryptophan isopropyl ester•HA 10% w/v, HA = 2/3H3PO4, 20° C.): >1.3% (w/v)
- Solubility of melatonin ([1]; tryptophan isopropyl ester•HA 10% w/v, HA = Citric acid, 20° C.): >1.2% (w/v)
- Solubility of melatonin ([1]; tryptophan isopropyl ester•HA 10% w/v, HA = H2SO4, 20° C.): >1.4% (w/v)
- Solubility of melatonin ([1]; tryptophan isopropyl ester•HA 10% w/v, HA = HBr, 20° C.): >1.4% (w/v)
- Solubility of melatonin ([1]; tryptophan isopropyl ester•HA 10% w/v, HA = HCl, 20° C.): >1.5% (w/v)
- Solubility of melatonin ([1]; tryptophan isopropyl ester•HA 10% w/v, HA = HF, 20° C.): >1.5% (w/v)
- Solubility of melatonin ([1]; tryptophan isopropyl ester•HA 10% w/v, HA = HI, 20° C.): >1.3% (w/v)
- Solubility of melatonin ([1]; tryptophan isopropyl ester•HA 10% w/v, HA = acetic acid, 20° C.): >1.4% (w/v)
- Solubility of melatonin ([1]; tryptophan isopropyl ester•HA 10% w/v, HA = benzoic acid, 20° C.): >1.3% (w/v)
- Solubility of melatonin ([1]; tryptophan isopropyl ester•HA 10% w/v, HA = butyric acid, 20° C.): >1.3% (w/v)
- Solubility of melatonin ([1]; tryptophan isopropyl ester•HA 10% w/v, HA = lactic acid, 20° C.): >1.4% (w/v)
- Solubility of melatonin ([1]; tyrosine isopropyl ester•HA 10% w/v, HA = 1/2H2SO4, 20° C.): >1% (w/v)
- Solubility of melatonin ([1]; tyrosine isopropyl ester•HA 10% w/v, HA = 1/3H3PO4, 20° C.): >1.0% (w/v)
- Solubility of melatonin ([1]; tyrosine isopropyl ester•HA 10% w/v, HA = 2/3H3PO4, 20° C.): >1.1% (w/v)
- Solubility of melatonin ([1]; tyrosine isopropyl ester•HA 10% w/v, HA = H2SO4, 20° C.): >1.2% (w/v)
- Solubility of melatonin ([1]; tyrosine isopropyl ester•HA 10% w/v, HA = HBr, 20° C.): >1.2% (w/v)
- Solubility of melatonin ([1]; tyrosine isopropyl ester•HA 10% w/v, HA = HCl, 20° C.): >1.3% (w/v)
- Solubility of melatonin ([1]; tyrosine isopropyl ester•HA 10% w/v, HA = HF, 20° C.): >1.3% (w/v)
- Solubility of melatonin ([1]; tyrosine isopropyl ester•HA 10% w/v, HA = HI, 20° C.): >1% (w/v)
- Solubility of melatonin ([1]; tyrosine isopropyl ester•HA 10% w/v, HA = acetic acid, 20° C.): >1.1% (w/v)
- Solubility of melatonin ([1]; tyrosine isopropyl ester•HA 10% w/v, HA = benzoic acid, 20° C.): >1% (w/v)
- Solubility of melatonin ([1]; tyrosine isopropyl ester•HA 10% w/v, HA = butyric acid, 20° C.): >1% (w/v)
- Solubility of melatonin ([1]; tyrosine isopropyl ester•HA 10% w/v, HA = citric acid, 20° C.): >1% (w/v)
- Solubility of melatonin ([1]; tyrosine isopropyl ester•HA 10% w/v, HA = lactic acid, 20° C.): >1.1% (w/v)
- concentration at 0 hr (clinical): 0 ng/mL
- concentration at 1 h (clinical): 1.4 ng/mL
- concentration at 1 hr (clinical): 1.6 ng/mL
- concentration at 2 h (clinical): 1.5 ng/mL
- concentration at 2 hr (clinical): 1.7 ng/mL
- concentration at 4 h (clinical): 1.5 ng/mL
- concentration at 4 hr (clinical): 1.8 ng/mL
- concentration at 8 h (clinical): 1.4 ng/mL
- concentration at 8 hr (clinical): 1.7 ng/mL
Compound: COc1ccc2[nH]cc(CCNC(C)=O)c2c1 [Melatonin]
